Where “and” joins values, the source holds several entries; their conditions need not be identical. Equal entries are not always repeated.
Experiments:
[1] = Cytotoxicity against mouse L12-G10 cells by MTT assay; assay type: cell-based
[2] = Cytotoxicity against mouse L12-G10 cells at 50 uM by MTT assay; assay type: cell-based; conditions: l12-g10, 50 µM
[3] = target: Acetylcholinesterase (Electrophorus electricus, UniProt O42275)
Description: Inhibition of electric eel AChE by modified Ellman's method

[4] = target: Cholinesterase (Equus caballus, UniProt P81908)
Description: Inhibition of equine serum BChE by modified Ellman's method

[5] = target: Glutamate NMDA receptor; GRIN1/GRIN2B (Homo sapiens, UniProt Q05586+Q13224); assay: Displacement of [3H]ifenprodil from human NR1-1a/NR2B receptor expressed in mouse L13-E6 cells; assay type: cell-based
Glutamate NMDA receptor; GRIN1/GRIN2B, sequence (Q13224 whole entry, other chains not shown): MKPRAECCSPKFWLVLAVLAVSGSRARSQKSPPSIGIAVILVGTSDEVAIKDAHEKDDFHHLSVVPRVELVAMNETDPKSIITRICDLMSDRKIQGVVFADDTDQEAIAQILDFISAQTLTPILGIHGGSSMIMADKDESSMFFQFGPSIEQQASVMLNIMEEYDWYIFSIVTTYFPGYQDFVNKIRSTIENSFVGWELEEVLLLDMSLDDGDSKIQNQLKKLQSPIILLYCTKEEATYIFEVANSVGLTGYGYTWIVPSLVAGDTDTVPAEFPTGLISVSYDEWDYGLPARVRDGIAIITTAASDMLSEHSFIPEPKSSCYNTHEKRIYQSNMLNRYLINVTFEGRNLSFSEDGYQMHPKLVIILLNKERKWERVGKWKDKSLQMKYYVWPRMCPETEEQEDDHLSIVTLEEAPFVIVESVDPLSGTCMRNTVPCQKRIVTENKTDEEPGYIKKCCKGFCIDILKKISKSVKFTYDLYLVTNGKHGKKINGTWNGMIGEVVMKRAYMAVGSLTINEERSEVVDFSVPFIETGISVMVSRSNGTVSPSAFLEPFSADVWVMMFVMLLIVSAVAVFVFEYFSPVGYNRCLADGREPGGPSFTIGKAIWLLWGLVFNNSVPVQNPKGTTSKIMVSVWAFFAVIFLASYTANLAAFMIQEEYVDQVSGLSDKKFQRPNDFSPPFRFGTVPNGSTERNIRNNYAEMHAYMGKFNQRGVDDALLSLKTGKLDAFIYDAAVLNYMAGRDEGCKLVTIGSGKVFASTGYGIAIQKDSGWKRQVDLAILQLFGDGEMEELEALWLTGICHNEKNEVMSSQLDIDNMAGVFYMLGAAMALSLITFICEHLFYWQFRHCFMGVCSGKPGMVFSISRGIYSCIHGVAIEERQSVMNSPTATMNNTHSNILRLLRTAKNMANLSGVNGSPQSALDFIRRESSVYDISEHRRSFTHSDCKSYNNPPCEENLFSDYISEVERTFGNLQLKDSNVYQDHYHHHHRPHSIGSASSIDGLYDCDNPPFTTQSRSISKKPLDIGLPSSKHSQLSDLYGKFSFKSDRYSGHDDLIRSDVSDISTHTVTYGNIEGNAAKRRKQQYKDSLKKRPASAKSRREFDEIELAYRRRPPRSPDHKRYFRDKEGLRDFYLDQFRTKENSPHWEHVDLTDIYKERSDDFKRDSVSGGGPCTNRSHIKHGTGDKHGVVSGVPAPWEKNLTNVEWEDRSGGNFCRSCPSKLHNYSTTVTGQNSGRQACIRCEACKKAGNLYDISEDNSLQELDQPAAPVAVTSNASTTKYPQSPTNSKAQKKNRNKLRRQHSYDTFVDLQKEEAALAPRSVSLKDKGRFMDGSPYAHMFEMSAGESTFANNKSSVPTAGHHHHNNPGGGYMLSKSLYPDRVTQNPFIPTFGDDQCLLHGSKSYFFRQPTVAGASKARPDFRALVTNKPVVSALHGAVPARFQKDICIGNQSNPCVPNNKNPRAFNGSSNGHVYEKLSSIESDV

[6] = target: Glutamate NMDA receptor; GRIN1/GRIN2A (Homo sapiens) (UniProt Q05586+Q12879); conditions: L12-G10, 100 uM
Description: Inhibition of dexamethasone-induced human NR1-1a/NR2A receptor-mediated excitotoxicity in (S)-glutamate/glycine-stimulated mouse L12-G10 cells assessed as LDH release at 100 uM after 30 mins

Acetylcholinesterase, sequence (O42275 whole entry): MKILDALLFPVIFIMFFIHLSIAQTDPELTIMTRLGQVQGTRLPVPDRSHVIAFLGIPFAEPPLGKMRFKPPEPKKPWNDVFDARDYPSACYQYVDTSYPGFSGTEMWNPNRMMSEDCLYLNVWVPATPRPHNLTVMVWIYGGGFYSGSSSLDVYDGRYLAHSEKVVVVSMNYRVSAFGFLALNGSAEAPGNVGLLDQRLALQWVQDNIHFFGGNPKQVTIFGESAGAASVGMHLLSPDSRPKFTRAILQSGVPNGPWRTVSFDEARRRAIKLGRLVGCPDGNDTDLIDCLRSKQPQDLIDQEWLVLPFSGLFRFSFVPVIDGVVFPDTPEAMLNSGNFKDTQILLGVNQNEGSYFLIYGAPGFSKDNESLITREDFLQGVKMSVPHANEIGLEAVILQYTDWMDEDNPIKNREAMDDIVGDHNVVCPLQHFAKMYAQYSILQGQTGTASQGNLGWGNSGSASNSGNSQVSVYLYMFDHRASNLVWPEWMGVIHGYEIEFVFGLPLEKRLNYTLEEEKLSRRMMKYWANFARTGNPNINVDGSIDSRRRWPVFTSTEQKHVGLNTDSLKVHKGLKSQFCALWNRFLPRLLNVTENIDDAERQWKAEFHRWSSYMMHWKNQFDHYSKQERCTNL
Cholinesterase, sequence (P81908 whole entry): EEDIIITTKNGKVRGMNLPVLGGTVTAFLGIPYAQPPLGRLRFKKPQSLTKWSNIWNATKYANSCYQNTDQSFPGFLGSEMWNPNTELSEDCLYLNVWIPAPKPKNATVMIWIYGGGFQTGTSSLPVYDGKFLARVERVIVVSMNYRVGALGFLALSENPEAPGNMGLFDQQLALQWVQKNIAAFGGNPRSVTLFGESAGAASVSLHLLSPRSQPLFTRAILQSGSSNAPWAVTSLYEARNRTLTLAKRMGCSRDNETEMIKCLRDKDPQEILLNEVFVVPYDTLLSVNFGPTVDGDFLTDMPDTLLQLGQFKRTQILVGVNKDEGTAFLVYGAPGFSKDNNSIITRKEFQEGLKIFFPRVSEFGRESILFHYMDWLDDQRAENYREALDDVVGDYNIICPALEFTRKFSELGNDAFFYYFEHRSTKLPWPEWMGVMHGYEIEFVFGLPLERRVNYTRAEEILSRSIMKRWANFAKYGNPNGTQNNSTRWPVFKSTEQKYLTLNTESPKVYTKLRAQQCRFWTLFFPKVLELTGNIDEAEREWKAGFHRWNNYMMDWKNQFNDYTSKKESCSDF

SMILES | CC50 [1] | Activity [2] | IC50 [3] | IC50 [4] | Ki [5] | inhibition [6]
[Br-].[Br-].c1ccc2c(c1)[nH]c1c[n+](Cc3ccc(C[n+]4ccc5c(c4)[nH]c4ccccc45)cc3)ccc12 | > 100000 nM | 83.2% | 147 nM | 439 nM and 473 nM |  | 
c1ccc2c(c1)c1ccncc1n2CCCCCn1c2ccccc2c2ccncc21 |  |  | > 10000 nM | > 1000 nM |  | 
CCC[n+]1ccc2c(c1)[nH]c1ccccc12 |  |  | 845 nM | 2310 nM |  | 
COc1ccc2[nH]c3c[n+](CCCCC[n+]4ccc5c(c4)[nH]c4ccc(OC)cc45)ccc3c2c1.[Br-].[Br-] | > 100000 nM | 84.1% | > 10000 nM | 319 nM |  | 
C[n+]1ccc2c(c1)[nH]c1ccccc12 |  |  | > 10000 nM | 540 nM |  | 
CNC1(c2ccccc2Cl)CCCCC1=O (centres undefined) [KETAMINE] | > 100000 nM | 99.8% | > 10000 nM | > 10000 nM |  | 
c1ccc2c3c([nH]c2c1)CN(CCCCCN1CCc2c([nH]c4ccccc24)C1)CC3 |  |  | > 1000 nM | > 1000 nM |  | 
C[n+]1ccc2c3ccccc3n(CCCCCn3c4ccccc4c4cc[n+](C)cc43)c2c1 |  |  | 280 nM | 19 nM |  | 
[Br-].[Br-].c1ccc2c(c1)[nH]c1c[n+](CCCCCC[n+]3ccc4c(c3)[nH]c3ccccc34)ccc12 | > 100000 nM | 75% | 248 nM | 186 nM | 20000 nM | 
CCn1c2ccccc2c2ccncc21 |  |  | > 1000 nM | > 10000 nM |  | 
NCCCNCCCCNCCCN |  |  |  |  |  | 108%
[Br-].[Br-].c1ccc2c(c1)[nH]c1c[n+](CCC[n+]3ccc4c(c3)[nH]c3ccccc34)ccc12 | > 100000 nM | 82.5% | 7660 nM | 652 nM |  | 
[Br-].[Br-].c1ccc2c(c1)[nH]c1c[n+](CCCC[n+]3ccc4c(c3)[nH]c3ccccc34)ccc12 | > 100000 nM | 78.2% | 278 nM | 78 nM |  | 
c1cc[n+](CCCCCC[n+]2ccc3c(c2)[nH]c2ccccc23)cc1 |  |  | 564 nM | 6330 nM |  | 
CCn1c2ccccc2c2cc[n+](C)cc21 |  |  | 2570 nM | 2020 nM |  | 
[Br-].[Br-].c1ccc2c(c1)[nH]c1c[n+](CCCCCCCCCCCC[n+]3ccc4c(c3)[nH]c3ccccc34)ccc12 | 35100 nM | 38% | 86 nM | 22 nM |  | 
c1ccc2c(c1)c1ccncc1n2CCCCCCCCCCCCn1c2ccccc2c2ccncc21 | > 100000 nM | 100.2% | > 10000 nM | > 10000 nM |  | 

SMILES | CC50 [1] | Activity [2] | IC50 [3] | IC50 [4] | Ki [5] | inhibition [6]
C[n+]1ccc2c3ccccc3n(CCCCCCCCCn3c4ccccc4c4cc[n+](C)cc43)c2c1.[I-].[I-] | > 100000 nM | 78.9% |  |  |  | 
c1ccc2c(c1)c1ccncc1n2CCCCCCCCCn1c2ccccc2c2ccncc21 | > 100000 nM | 67.7% |  |  |  | 
Oc1ccc2[nH]c3c[n+](CCCCC[n+]4ccc5c(c4)[nH]c4ccc(O)cc45)ccc3c2c1.[Br-].[Br-] | > 100000 nM | 71.8% | 4260 nM | 1630 nM |  | 
c1ccc2c3c([nH]c2c1)CN(CCCCCCCCCCN1CCc2c([nH]c4ccccc24)C1)CC3 |  |  | > 1000 nM | 2900 nM |  | 
[Br-].[Br-].c1ccc2c(c1)[nH]c1c[n+](CC[n+]3ccc4c(c3)[nH]c3ccccc34)ccc12 | > 100000 nM | 76.6% | 430 nM | 319 nM |  | 
C[C@]12N[C@H](Cc3ccccc31)c1ccccc12 [DIZOCILPINE] | > 100000 nM | 100.3% |  |  |  | 
[Br-].[Br-].c1ccc2c(c1)[nH]c1c[n+](CCCCCCCCC[n+]3ccc4c(c3)[nH]c3ccccc34)ccc12 | > 100000 nM | 73.8% | 125 nM | 40 nM |  | 
[Br-].[Br-].c1ccc2c(c1)[nH]c1c[n+](CCCCCCCC[n+]3ccc4c(c3)[nH]c3ccccc34)ccc12 | 54200 nM | 51.8% | 113 nM | 75 nM |  | 
[Br-].[Br-].c1ccc2c(c1)[nH]c1c[n+](CCCCC[n+]3ccc4c(c3)[nH]c3ccccc34)ccc12 | > 100000 nM | 92.4% | 595 nM | 48.9 nM and 48 nM |  | 
C[n+]1ccc2c3ccccc3n(CCCCCCCCCCCCn3c4ccccc4c4cc[n+](C)cc43)c2c1.[I-].[I-] | 33800 nM | 52.9% | 1.2 nM | 4 nM |  | 
CC12CC3CC(C)(C1)CC(N)(C3)C2 [MEMANTINE] | > 100000 nM | 100.4% | > 10000 nM | > 10000 nM |  | 
[Br-].[Br-].c1ccc2c(c1)[nH]c1c[n+](CCCCCCCCCCC[n+]3ccc4c(c3)[nH]c3ccccc34)ccc12 | > 100000 nM | 60.3% | 92 nM | 18 nM |  | 
[Br-].[Br-].c1ccc2c(c1)[nH]c1c[n+](CCOCCOCCOCC[n+]3ccc4c(c3)[nH]c3ccccc34)ccc12 | > 100000 nM | 98.6% | 3140 nM | 195 nM |  | 
c1cc[n+](CCCCCC[n+]2ccccc2)cc1 |  |  | > 10000 nM | > 10000 nM |  | 
[Br-].[Br-].c1ccc2c(c1)[nH]c1c[n+](CCCCCCC[n+]3ccc4c(c3)[nH]c3ccccc34)ccc12 | > 100000 nM | 80.1% | 81 nM | 65 nM |  | 
[Br-].[Br-].c1ccc2c(c1)[nH]c1c[n+](CCCCCCCCCC[n+]3ccc4c(c3)[nH]c3ccccc34)ccc12 | > 100000 nM | 67.5% | 63 nM | 49 nM |  | 

Reference: ChEMBL document CHEMBL1157915, “Bivalent beta-carbolines as potential multitarget anti-Alzheimer agents” (J Med Chem, 2010)
